Values of other authors in patent US9167842B2, “Functional food preparation and use thereof” (priority 2010, dated 2015).
Where two headings read alike, the source gives them in different places.

What was measured:
[1] = oral, 32 hypercholesterolemic patients, three months
[2] = daily folic acid supplement

SMILES | reduction of LDL cholesterol [1] [%] | reduction of plasma cholesterol [1] [%] | reduction of triglycerides [1] [%] | reduction of homocysteine [2] | reduction of homocysteine ([2]; dose doubled)
COc1ccc2cc3[n+](cc2c1OC)CCc1cc2c(cc1-3)OCO2 [berberine] | 25 | 29 | 35 |  | 
Nc1nc2ncc(CNc3ccc(C(=O)N[C@@H](CCC(=O)O)C(=O)O)cc3)nc2c(=O)[nH]1 [folic acid] |  |  |  | about 60% | about 90%
